Assay results from ChEMBL document CHEMBL5724914, “Linking interpersonal differences in gut microbiota composition and drug biotransformation activity” (2024).

Key:
[1] = human gut metagenome, 24 h, 2 µM
[2] = The drug is tested on Z-028 corresponding to mouse gut metagenome with ENA study accession number: PRJEB37062 and ENA sample accession number: ERS12561827 for biotransformation under anaerobic condition. The drug concentrations were measured over 9 timepoints collected between 0 and 24 hours of incubation by liquid-chromatography-coupled mass spectrometry (LC–MS); conditions: 2 µM
[3] = The drug is tested on WLS-010 corresponding to human gut metagenome with ENA study accession number: PRJEB37062 and ENA sample accession number: ERS12561743 for biotransformation under anaerobic condition. The drug concentrations were measured over 9 timepoints collected between 0 and 24 hours of incubation by liquid-chromatography-coupled mass spectrometry (LC–MS); conditions: 2 µM
[4] = human gut metagenome, 24 h, 2 µM; remark: listed apart in the source
[5] = human gut metagenome, 24 h, 2 µM; remark: listed apart in the source
[6] = The drug is tested on Z-019 corresponding to rat gut metagenome with ENA study accession number: PRJEB37062 and ENA sample accession number: ERS12561818 for biotransformation under anaerobic condition. The drug concentrations were measured over 9 timepoints collected between 0 and 24 hours of incubation by liquid-chromatography-coupled mass spectrometry (LC–MS); conditions: 2 µM
[7] = The drug is tested on WLS-007 corresponding to human gut metagenome with ENA study accession number: PRJEB37062 and ENA sample accession number: ERS12561742 for biotransformation under anaerobic condition. The drug concentrations were measured over 9 timepoints collected between 0 and 24 hours of incubation by liquid-chromatography-coupled mass spectrometry (LC–MS); conditions: 2 µM
[8] = human gut metagenome, 24 h, 2 µM; remark: listed apart in the source
[9] = human gut metagenome, 24 h, 2 µM; remark: listed apart in the source
[10] = The drug is tested on WLS-310 corresponding to human gut metagenome with ENA study accession number: PRJEB37062 and ENA sample accession number: ERS12561785 for biotransformation under anaerobic condition. The drug concentrations were measured over 9 timepoints collected between 0 and 24 hours of incubation by liquid-chromatography-coupled mass spectrometry (LC–MS); conditions: 2 µM
[11] = The drug is tested on Z-016 corresponding to mouse gut metagenome with ENA study accession number: PRJEB37062 and ENA sample accession number: ERS12561815 for biotransformation under anaerobic condition. The drug concentrations were measured over 9 timepoints collected between 0 and 24 hours of incubation by liquid-chromatography-coupled mass spectrometry (LC–MS); conditions: 2 µM
[12] = The drug is tested on Z-014 corresponding to rat gut metagenome with ENA study accession number: PRJEB37062 and ENA sample accession number: ERS12561814 for biotransformation under anaerobic condition. The drug concentrations were measured over 9 timepoints collected between 0 and 24 hours of incubation by liquid-chromatography-coupled mass spectrometry (LC–MS); conditions: 2 µM
[13] = The drug is tested on Z-029 corresponding to rat gut metagenome with ENA study accession number: PRJEB37062 and ENA sample accession number: ERS12561828 for biotransformation under anaerobic condition. The drug concentrations were measured over 9 timepoints collected between 0 and 24 hours of incubation by liquid-chromatography-coupled mass spectrometry (LC–MS); conditions: 2 µM
[14] = human gut metagenome, 24 h, 2 µM; remark: listed apart in the source
[15] = The drug is tested on Z-026 corresponding to metagenome with ENA study accession number: PRJEB37062 and ENA sample accession number: ERS12561825 for biotransformation under anaerobic condition. The drug concentrations were measured over 9 timepoints collected between 0 and 24 hours of incubation by liquid-chromatography-coupled mass spectrometry (LC–MS); conditions: 2 µM
[16] = human gut metagenome, 24 h, 2 µM; remark: listed apart in the source
[17] = The drug is tested on Z-001 corresponding to mouse gut metagenome with ENA study accession number: PRJEB37062 and ENA sample accession number: ERS12561801 for biotransformation under anaerobic condition. The drug concentrations were measured over 9 timepoints collected between 0 and 24 hours of incubation by liquid-chromatography-coupled mass spectrometry (LC–MS); conditions: 2 µM
[18] = human gut metagenome, 24 h, 2 µM; remark: listed apart in the source
[19] = The drug is tested on Z-008 corresponding to metagenome with ENA study accession number: PRJEB37062 and ENA sample accession number: ERS12561808 for biotransformation under anaerobic condition. The drug concentrations were measured over 9 timepoints collected between 0 and 24 hours of incubation by liquid-chromatography-coupled mass spectrometry (LC–MS); conditions: 2 µM
[20] = The drug is tested on Z-017 corresponding to mouse gut metagenome with ENA study accession number: PRJEB37062 and ENA sample accession number: ERS12561816 for biotransformation under anaerobic condition. The drug concentrations were measured over 9 timepoints collected between 0 and 24 hours of incubation by liquid-chromatography-coupled mass spectrometry (LC–MS); conditions: 2 µM
Note: call rule not given here.

SMILES | Bacterial Biotransformation [1] | Bacterial Biotransformation [2] | Bacterial Biotransformation [3] | Bacterial Biotransformation [4] | Bacterial Biotransformation [5] | Bacterial Biotransformation [6] | Bacterial Biotransformation [7] | Bacterial Biotransformation [8] | Bacterial Biotransformation [9] | Bacterial Biotransformation [10] | Bacterial Biotransformation [11] | Bacterial Biotransformation [12] | Bacterial Biotransformation [13] | Bacterial Biotransformation [14] | Bacterial Biotransformation [15] | Bacterial Biotransformation [16] | Bacterial Biotransformation [17] | Bacterial Biotransformation [18] | Bacterial Biotransformation [19] | Bacterial Biotransformation [20]
COc1ccc2[nH]c([S+]([O-])Cc3ncc(C)c(OC)c3C)nc2n1 (stereo not given) [TENATOPRAZOLE] | Compound NOT metabolized | Compound metabolized | Compound metabolized | Compound NOT metabolized | Compound NOT metabolized | Compound metabolized | Compound metabolized | Compound metabolized | Compound NOT metabolized | Compound metabolized | Compound metabolized | Compound metabolized | Compound metabolized | Compound NOT metabolized | Compound metabolized | Compound metabolized | Compound metabolized | Compound metabolized | Compound metabolized | Compound metabolized
CN1C(C(=O)Nc2ccccn2)=C(O)c2sccc2S1(=O)=O [TENOXICAM] | Compound NOT metabolized | Compound NOT metabolized | Compound NOT metabolized | Compound NOT metabolized | Compound NOT metabolized | Compound NOT metabolized | Compound NOT metabolized | Compound NOT metabolized | Compound NOT metabolized | Compound NOT metabolized | Compound NOT metabolized | Compound NOT metabolized | Compound NOT metabolized | Compound NOT metabolized | Compound NOT metabolized | Compound NOT metabolized | Compound NOT metabolized | Compound metabolized | Compound NOT metabolized | Compound NOT metabolized
O=c1n(CCCN2CCN(c3cccc(Cl)c3)CC2)nc2ccccn12 [TRAZODONE] | Compound NOT metabolized | Compound NOT metabolized | Compound NOT metabolized | Compound NOT metabolized | Compound NOT metabolized | Compound NOT metabolized | Compound metabolized | Compound metabolized | Compound NOT metabolized | Compound NOT metabolized | Compound NOT metabolized | Compound NOT metabolized | Compound NOT metabolized | Compound metabolized | Compound NOT metabolized | Compound NOT metabolized | Compound NOT metabolized | Compound metabolized | Compound NOT metabolized | Compound NOT metabolized
OC(CCN1CCCCC1)(c1ccccc1)C1CCCCC1 (stereo not given) [TRIHEXYPHENIDYL] | Compound NOT metabolized | Compound NOT metabolized | Compound NOT metabolized | Compound NOT metabolized | Compound metabolized | Compound NOT metabolized | Compound metabolized | Compound metabolized | Compound NOT metabolized | Compound metabolized | Compound metabolized | Compound NOT metabolized | Compound NOT metabolized | Compound metabolized | Compound NOT metabolized | Compound metabolized | Compound metabolized | Compound metabolized | Compound NOT metabolized | Compound NOT metabolized
Cc1cn([C@H]2C[C@H](N=[N+]=[N-])[C@@H](CO)O2)c(=O)[nH]c1=O [ZIDOVUDINE] | Compound NOT metabolized | Compound metabolized | Compound metabolized | Compound NOT metabolized | Compound NOT metabolized | Compound metabolized | Compound NOT metabolized | Compound NOT metabolized | Compound NOT metabolized | Compound NOT metabolized | Compound NOT metabolized | Compound NOT metabolized | Compound metabolized | Compound metabolized | Compound metabolized | Compound NOT metabolized | Compound metabolized | Compound NOT metabolized | Compound NOT metabolized | Compound metabolized
